Patent US9738660B2, “Selective inhibitors for protein kinases and pharmaceutical composition and use thereof” (National Chiao Tung University, priority 2014, dated 2017)
Read-outs that look alike come from different tables or passages of the source.

What was measured:
Test in all cases: Kinase Profiler, residual kinase activity
Assay type in all cases: biochemical
Conditions in all cases: read-out: percentage of the remaining kinase activity
[1] = biological target: T1, PLK1 (Homo sapiens, UniProt P53350)
T1 construct: purchased Research Biology Corp. (http://www.reactionbiology.com)
T1 sequence (P53350 whole entry): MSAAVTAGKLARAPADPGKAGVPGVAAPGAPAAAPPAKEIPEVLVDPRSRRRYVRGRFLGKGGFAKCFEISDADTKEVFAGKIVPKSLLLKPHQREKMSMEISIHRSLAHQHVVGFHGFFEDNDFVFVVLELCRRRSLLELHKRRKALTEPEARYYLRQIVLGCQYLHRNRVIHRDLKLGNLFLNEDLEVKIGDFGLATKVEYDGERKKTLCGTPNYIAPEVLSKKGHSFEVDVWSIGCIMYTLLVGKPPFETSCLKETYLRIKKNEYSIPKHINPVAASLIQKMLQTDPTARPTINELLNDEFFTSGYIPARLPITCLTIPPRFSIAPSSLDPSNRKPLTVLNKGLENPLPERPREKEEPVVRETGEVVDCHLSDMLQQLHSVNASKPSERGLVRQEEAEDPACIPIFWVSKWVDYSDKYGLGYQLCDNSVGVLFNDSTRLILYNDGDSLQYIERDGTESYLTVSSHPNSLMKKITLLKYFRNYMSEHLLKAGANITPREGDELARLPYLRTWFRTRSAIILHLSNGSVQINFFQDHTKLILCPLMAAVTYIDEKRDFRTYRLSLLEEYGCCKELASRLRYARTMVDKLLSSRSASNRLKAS

[2] = biological target: CDK2 (Homo sapiens, UniProt P24941)
[3] = biological target: LCK (Homo sapiens, UniProt P06239)
Chain of LCK (P06239 whole entry): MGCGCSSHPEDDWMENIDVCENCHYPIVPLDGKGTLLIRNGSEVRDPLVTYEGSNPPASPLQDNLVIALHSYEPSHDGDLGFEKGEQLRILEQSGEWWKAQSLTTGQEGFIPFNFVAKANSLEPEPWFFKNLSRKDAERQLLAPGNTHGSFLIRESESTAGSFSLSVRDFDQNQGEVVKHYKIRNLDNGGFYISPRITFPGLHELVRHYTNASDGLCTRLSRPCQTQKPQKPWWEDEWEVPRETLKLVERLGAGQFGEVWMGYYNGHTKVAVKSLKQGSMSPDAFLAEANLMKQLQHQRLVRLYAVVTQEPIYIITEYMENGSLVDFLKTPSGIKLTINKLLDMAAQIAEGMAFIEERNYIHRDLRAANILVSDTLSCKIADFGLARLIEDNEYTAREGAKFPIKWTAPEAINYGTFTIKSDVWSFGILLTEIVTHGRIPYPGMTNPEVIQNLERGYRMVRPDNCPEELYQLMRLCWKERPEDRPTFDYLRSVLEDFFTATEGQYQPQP

[4] = biological target: T2, MAPKAPK2 (Homo sapiens, UniProt P49137)
T2 construct: purchased Research Biology Corp. (http://www.reactionbiology.com)
T2 sequence (P49137 whole entry): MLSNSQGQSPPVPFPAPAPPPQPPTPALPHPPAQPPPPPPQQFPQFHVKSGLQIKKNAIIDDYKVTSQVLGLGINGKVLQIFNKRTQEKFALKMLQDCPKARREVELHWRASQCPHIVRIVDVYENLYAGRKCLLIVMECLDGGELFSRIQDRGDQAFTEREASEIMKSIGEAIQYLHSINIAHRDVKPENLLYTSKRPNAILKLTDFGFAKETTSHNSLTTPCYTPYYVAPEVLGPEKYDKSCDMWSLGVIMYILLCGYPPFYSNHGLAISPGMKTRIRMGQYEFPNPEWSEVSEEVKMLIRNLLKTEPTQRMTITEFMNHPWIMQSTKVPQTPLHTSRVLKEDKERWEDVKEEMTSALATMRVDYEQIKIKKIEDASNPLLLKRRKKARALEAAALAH

[5] = biological target: BTK (Homo sapiens, UniProt Q06187)
Chain of BTK (Q06187 whole entry): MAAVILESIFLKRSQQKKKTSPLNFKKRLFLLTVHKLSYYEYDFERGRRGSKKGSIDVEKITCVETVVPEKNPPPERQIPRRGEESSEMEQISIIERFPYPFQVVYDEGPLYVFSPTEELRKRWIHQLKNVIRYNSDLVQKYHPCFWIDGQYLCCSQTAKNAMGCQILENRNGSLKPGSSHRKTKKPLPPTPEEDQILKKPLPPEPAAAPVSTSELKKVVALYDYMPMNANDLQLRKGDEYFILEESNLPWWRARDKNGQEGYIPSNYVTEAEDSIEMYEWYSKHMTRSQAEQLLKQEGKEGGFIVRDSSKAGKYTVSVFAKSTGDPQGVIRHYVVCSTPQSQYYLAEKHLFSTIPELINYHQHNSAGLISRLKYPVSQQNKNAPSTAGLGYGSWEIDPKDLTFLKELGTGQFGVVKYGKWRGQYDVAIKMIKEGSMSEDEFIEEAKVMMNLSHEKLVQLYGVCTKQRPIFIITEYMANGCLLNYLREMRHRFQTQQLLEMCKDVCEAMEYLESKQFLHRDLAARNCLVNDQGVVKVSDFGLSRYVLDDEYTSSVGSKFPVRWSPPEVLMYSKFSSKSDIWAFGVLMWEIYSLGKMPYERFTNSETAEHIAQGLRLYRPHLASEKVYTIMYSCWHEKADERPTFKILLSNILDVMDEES
Description: (§1) Kinase Profiler services provided by […]. (http://www.reactionbiology.com) were used to analyze the data of the 9 type-S protein kinase inhibitors against the 40 types of protein kinases.

[6] = biological target: CLK1 (Homo sapiens, UniProt P49759)
Description: as §1

[7] = biological target: T3, STK11 (Homo sapiens, UniProt Q15831)
T3 sequence (Q15831 1-433): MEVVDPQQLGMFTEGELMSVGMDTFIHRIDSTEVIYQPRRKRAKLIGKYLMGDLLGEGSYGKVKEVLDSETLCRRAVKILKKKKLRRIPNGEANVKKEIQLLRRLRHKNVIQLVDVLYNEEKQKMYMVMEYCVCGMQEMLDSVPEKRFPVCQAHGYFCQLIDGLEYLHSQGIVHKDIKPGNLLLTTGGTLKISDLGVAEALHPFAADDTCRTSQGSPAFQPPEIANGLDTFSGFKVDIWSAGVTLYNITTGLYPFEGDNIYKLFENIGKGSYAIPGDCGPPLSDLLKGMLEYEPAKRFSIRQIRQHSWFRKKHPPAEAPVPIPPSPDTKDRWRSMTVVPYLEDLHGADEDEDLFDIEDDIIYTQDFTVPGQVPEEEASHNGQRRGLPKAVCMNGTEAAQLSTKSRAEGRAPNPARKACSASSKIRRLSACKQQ
T3 sequence (Q7RTN6 1-431 partner): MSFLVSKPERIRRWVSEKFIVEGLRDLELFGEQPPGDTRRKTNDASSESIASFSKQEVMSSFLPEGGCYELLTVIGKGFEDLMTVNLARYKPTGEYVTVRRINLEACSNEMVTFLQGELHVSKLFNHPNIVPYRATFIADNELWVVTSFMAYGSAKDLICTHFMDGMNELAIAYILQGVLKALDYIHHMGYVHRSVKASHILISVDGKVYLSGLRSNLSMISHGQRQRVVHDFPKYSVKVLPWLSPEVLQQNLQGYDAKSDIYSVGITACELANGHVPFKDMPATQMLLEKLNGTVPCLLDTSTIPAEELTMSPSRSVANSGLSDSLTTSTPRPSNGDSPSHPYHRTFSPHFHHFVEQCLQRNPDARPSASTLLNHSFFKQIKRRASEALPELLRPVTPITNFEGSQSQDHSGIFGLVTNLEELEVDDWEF
T3 sequence (Q9Y376 1-341 partner): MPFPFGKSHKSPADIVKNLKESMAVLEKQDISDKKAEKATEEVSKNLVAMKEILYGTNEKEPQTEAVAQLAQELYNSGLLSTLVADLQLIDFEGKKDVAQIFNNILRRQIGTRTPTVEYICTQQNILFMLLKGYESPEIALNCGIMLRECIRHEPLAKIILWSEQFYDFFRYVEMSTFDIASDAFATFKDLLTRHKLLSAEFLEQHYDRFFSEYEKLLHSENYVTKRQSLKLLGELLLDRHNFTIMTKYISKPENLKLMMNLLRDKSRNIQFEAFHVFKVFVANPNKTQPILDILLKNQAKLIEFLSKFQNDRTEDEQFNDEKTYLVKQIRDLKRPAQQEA
Description: as §1

[8] = biological target: PIM1 (Homo sapiens, UniProt P11309)
Chain of PIM1 (P11309 whole entry): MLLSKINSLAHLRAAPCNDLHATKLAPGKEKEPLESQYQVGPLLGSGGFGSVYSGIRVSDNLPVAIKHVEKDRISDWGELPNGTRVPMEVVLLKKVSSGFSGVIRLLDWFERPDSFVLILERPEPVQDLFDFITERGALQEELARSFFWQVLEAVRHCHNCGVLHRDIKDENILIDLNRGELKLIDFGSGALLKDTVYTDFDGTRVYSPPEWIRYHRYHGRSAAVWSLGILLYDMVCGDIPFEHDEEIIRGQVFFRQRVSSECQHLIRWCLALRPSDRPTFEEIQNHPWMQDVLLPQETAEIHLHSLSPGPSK
Description: as §1

[9] = biological target: T4, MAP2K1 (Homo sapiens, UniProt Q02750)
T4 construct: purchased Research Biology Corp. (http://www.reactionbiology.com)
T4 sequence (Q02750 whole entry): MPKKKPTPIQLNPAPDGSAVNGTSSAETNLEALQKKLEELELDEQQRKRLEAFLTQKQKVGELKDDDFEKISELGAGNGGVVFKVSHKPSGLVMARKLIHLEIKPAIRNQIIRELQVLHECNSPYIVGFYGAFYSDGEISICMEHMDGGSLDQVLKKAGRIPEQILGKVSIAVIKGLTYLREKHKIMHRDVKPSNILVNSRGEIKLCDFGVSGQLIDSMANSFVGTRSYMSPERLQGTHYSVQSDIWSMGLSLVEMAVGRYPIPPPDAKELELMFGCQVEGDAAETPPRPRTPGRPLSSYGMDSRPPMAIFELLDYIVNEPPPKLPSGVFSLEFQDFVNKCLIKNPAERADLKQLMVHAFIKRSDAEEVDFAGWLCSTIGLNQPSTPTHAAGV
Description: as §1

[10] = biological target: T5, INSR (Homo sapiens, UniProt P06213)
T5 construct: purchased Research Biology Corp. (http://www.reactionbiology.com)
Description: as §1

[11] = biological target: KDR (Homo sapiens, UniProt P35968)
Description: as §1

[12] = biological target: PAK4 (Homo sapiens, UniProt O96013)
Chain of PAK4 (O96013 whole entry): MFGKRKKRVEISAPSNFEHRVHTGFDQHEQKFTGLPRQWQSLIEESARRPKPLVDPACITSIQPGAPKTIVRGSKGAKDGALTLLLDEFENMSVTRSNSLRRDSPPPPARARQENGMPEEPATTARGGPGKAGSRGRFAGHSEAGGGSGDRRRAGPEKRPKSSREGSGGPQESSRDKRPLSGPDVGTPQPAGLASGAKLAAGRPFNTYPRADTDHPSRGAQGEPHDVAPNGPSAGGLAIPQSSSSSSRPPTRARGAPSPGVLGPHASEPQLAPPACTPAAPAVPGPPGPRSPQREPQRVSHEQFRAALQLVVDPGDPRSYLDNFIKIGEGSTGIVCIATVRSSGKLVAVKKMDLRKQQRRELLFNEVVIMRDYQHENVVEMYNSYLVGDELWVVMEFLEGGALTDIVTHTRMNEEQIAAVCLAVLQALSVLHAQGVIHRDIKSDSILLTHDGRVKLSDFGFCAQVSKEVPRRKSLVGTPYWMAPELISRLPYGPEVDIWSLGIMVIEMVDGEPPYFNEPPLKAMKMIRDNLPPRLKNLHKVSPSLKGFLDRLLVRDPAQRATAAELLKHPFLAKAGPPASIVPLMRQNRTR
Description: as §1

[13] = biological target: GSK3B (Homo sapiens, UniProt P49841)
Description: as §1

[14] = biological target: T6, EGFR (Homo sapiens, UniProt P00533)
T6 construct: purchased Research Biology Corp. (http://www.reactionbiology.com)
T6 sequence (P00533 25-1210): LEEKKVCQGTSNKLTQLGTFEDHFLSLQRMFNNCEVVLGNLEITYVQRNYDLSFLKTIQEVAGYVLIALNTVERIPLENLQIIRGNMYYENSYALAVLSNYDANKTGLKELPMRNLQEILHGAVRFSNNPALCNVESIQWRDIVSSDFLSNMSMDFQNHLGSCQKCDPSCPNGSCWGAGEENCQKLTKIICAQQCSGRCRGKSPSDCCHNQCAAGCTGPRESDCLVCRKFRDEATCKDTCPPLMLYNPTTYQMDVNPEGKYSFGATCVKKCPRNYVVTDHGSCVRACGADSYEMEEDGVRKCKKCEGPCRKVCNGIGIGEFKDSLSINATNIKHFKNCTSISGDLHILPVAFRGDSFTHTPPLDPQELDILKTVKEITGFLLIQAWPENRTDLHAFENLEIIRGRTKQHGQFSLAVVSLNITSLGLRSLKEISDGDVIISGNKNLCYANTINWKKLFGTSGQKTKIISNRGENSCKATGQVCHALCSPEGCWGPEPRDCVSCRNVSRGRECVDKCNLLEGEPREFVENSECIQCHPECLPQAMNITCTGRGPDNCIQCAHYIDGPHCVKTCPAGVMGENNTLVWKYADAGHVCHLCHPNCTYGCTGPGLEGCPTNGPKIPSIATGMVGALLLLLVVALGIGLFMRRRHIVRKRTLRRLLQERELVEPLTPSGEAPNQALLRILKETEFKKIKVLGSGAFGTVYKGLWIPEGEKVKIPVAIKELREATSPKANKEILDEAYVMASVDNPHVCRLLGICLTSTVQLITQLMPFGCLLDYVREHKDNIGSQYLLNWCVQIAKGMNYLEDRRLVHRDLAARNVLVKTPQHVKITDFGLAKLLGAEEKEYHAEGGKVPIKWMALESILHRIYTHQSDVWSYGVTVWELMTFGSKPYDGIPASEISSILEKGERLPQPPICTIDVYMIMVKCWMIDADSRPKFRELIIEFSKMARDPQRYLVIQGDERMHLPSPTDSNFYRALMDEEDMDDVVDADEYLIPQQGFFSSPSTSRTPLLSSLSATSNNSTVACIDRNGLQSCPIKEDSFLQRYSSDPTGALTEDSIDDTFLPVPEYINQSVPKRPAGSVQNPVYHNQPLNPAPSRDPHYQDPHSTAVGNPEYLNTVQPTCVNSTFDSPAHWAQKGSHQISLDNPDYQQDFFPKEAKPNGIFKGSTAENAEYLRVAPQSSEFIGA
Description: as §1

[15] = biological target: T7, MAP3K7 (Homo sapiens, UniProt O43318)
T7 construct: purchased Research Biology Corp. (http://www.reactionbiology.com)
T7 sequence (O43318 1-303 limits assumed): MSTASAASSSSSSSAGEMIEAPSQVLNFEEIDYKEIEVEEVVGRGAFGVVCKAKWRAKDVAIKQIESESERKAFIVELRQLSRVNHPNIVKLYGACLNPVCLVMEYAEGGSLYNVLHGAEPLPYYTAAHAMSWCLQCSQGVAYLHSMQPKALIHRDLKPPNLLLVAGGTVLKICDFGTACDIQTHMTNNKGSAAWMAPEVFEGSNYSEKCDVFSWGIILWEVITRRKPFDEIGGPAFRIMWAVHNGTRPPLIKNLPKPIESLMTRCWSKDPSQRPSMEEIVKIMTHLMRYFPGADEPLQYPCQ
Description: as §1

Compound	remaining activity at 0.5 µM ([1]; PLK1, inhibitor at 500 nM)	remaining activity at 0.5 µM ([2]; CDK2, inhibitor at 500 nM)	remaining activity at 0.5 µM ([3]; LCK, inhibitor at 500 nM)	remaining activity at 0.5 µM ([4]; MAPKAPK2, inhibitor at 500 nM)	remaining activity at 0.5 µM ([5]; BTK, inhibitor at 500 nM)	remaining activity at 0.5 µM ([6]; CLK1, inhibitor at 500 nM)	remaining activity at 0.5 µM ([7]; STK11, inhibitor at 500 nM)	remaining activity at 0.5 µM ([8]; PIM1, inhibitor at 500 nM)	remaining activity at 0.5 µM ([9]; MAP2K1, inhibitor at 500 nM)	remaining activity at 0.5 µM ([10]; INSR, inhibitor at 500 nM)	remaining activity at 0.5 µM ([11]; KDR, inhibitor at 500 nM)	remaining activity at 0.5 µM ([12]; PAK4, inhibitor at 500 nM)	remaining activity at 0.5 µM ([13]; GSK3B, inhibitor at 500 nM)	remaining activity at 0.5 µM ([14]; EGFR, inhibitor at 500 nM)	remaining activity at 0.5 µM ([15]; MAP3K7, inhibitor at 500 nM)	other results
COC1C(N(C)CCOc2cccc([N+](=O)[O-])c2)CC2OC1(C)n1c3ccccc3c3c4c(c5c6ccccc6n2c5c31)C(=O)NC4 (stereo not drawn) [Compound 8]	–	–	–	–	–	–	–	–	–	–	–	–	–	–	–	remaining activity at 0.5 µM [1]: 97.7%; remaining activity at 0.5 µM [2]: 12.3%; remaining activity at 0.5 µM [3]: 24%; remaining activity at 0.5 µM [4]: 94.6%; remaining activity at 0.5 µM [5]: 53.9%; remaining activity at 0.5 µM [6]: 74.8%; remaining activity at 0.5 µM [7]: 101%; remaining activity at 0.5 µM [8]: 24.6%; remaining activity at 0.5 µM [9]: 72%; remaining activity at 0.5 µM [10]: 83.1%; remaining activity at 0.5 µM [11]: 43.3%; remaining activity at 0.5 µM [12]: 99.9%; remaining activity at 0.5 µM [13]: 51.8%; remaining activity at 0.5 µM [14]: 102%; remaining activity at 0.5 µM [15]: 63.5%
COC1C(N(C)C(=O)C(N)Cc2ccc(O)cc2)CC2OC1(C)n1c3ccccc3c3c4c(c5c6ccccc6n2c5c31)C(=O)NC4 (stereo not drawn) [Compound 5]	99.2%	56.9%	11.5%	95.3%	37.8%	29.6%	102%	3%	103%	69.1%	16.3%	53.3%	29.4%	93.1%	70.7%	–
COC1C(N(C)C(=O)C(N)Cc2c[nH]cn2)CC2OC1(C)n1c3ccccc3c3c4c(c5c6ccccc6n2c5c31)C(=O)NC4 (stereo not drawn) [Compound 1]	93.8%	16.5%	2.1%	73.3%	13.9%	15.9%	88.7%	2.4%	79.8%	23.1%	6.5%	40.2%	17.9%	30.5%	37.5%	–

Second part, led by results:

remaining activity at 0.5 µM ([1]; PLK1, inhibitor at 500 nM)	remaining activity at 0.5 µM ([2]; CDK2, inhibitor at 500 nM)	remaining activity at 0.5 µM ([3]; LCK, inhibitor at 500 nM)	remaining activity at 0.5 µM ([4]; MAPKAPK2, inhibitor at 500 nM)	remaining activity at 0.5 µM ([5]; BTK, inhibitor at 500 nM)	remaining activity at 0.5 µM ([6]; CLK1, inhibitor at 500 nM)	remaining activity at 0.5 µM ([7]; STK11, inhibitor at 500 nM)	remaining activity at 0.5 µM ([8]; PIM1, inhibitor at 500 nM)	remaining activity at 0.5 µM ([9]; MAP2K1, inhibitor at 500 nM)	remaining activity at 0.5 µM ([10]; INSR, inhibitor at 500 nM)	remaining activity at 0.5 µM ([11]; KDR, inhibitor at 500 nM)	remaining activity at 0.5 µM ([12]; PAK4, inhibitor at 500 nM)	remaining activity at 0.5 µM ([13]; GSK3B, inhibitor at 500 nM)	remaining activity at 0.5 µM ([14]; EGFR, inhibitor at 500 nM)	remaining activity at 0.5 µM ([15]; MAP3K7, inhibitor at 500 nM)	Compound	other results
80.9%	19.3%	3%	91.8%	11.9%	32.3%	79.9%	2.5%	74.1%	32.8%	5.4%	38.4%	9.6%	82.2%	27.8%	COC1C(N(C)C(=O)C(N)CCC(=O)O)CC2OC1(C)n1c3ccccc3c3c4c(c5c6ccccc6n2c5c31)C(=O)NC4 (stereo not drawn) [Compound 7]	–
95.9%	8.2%	14%	92.5%	55.8%	73.7%	91.9%	21.8%	66.1%	79.1%	43.6%	91.8%	46.6%	96.2%	69.4%	COC1C(N(C)Cc2ccc(-c3ccccc3)cc2)CC2OC1(C)n1c3ccccc3c3c4c(c5c6ccccc6n2c5c31)C(=O)NC4 (stereo not drawn) [Compound 9]	–
